Among the test systems are A498; EKVX; HCT-15; HOP-62; LOX IMVI; NCI-H226; NCI-H522; OVCAR-3; OVCAR-5; SF-268; SF-539; SK-MEL-28; TK-10; CCRF-CEM; HL-60; MOLT-4.
What all share (assay): DTP human tumour cell line panel, 48 h

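Each compound was tested at five concentrations against cells in 96-well plates for 48 hours. GI50: concentration for 50% inhibition of growth.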 Calls of active or inactive are those of the source. Rule as the data show it: active = GI50 up to about 1.1 µM and inactive = higher.

As usually defined, the GI50 is the concentration that inhibits growth by half. As to `CC1=C(C(=O)CC(=O)C(=O)Nc2ccc(C)c(C)c2)Sc2ccccc2N1`, the GI50 was > 100 µM (inactive) with A498; > 100 µM (inactive) with EKVX; above 100 µM in the assay on HCT-15; > 100 µM (inactive) in the assay on HOP-62; > 100 µM (inactive) with LOX IMVI; > 100 µM (inactive) with NCI-H226. Besides, the GI50 in the assay with NCI-H522, in the assay with OVCAR-3, with OVCAR-5, in the assay on SF-268, in the assay on SF-539 and in the assay with SK-MEL-28 was > 100 µM (inactive) in each case. Besides, the GI50 with TK-10 was > 100 µM (inactive).
In the case of `CC(=O)/C=C1\CC(=O)Nc2ccccc2N1`, the GI50 with A498 is > 100 µM (inactive); with CCRF-CEM it was 2.79 µM (inactive); with EKVX, > 100 µM (inactive); in the assay with HCT-15 it was above 100 µM; in the assay with HL-60, > 100 µM (inactive); with LOX IMVI it was > 100 µM (inactive). The GI50 in the assay on NCI-H226, with OVCAR-5, with SF-268, in the assay on SF-539, with SK-MEL-28 and in the assay on TK-10 was > 100 µM (inactive) in each case.
For the molecule `CCc1cccc(C(C)C)c1NC(=O)C(=O)C(C(=O)C(=O)OC)c1nc2ccccc2nc1O` (stereo unspecified), the GI50 in the assay with A498 is > 100 µM (inactive); in the assay on CCRF-CEM it was > 100 µM (inactive); in the assay with EKVX, 44.7 µM (inactive); in the assay with HCT-15 it was above 100 µM; in the assay on HL-60 it was > 100 µM (inactive); in the assay with LOX IMVI, > 100 µM (inactive). The GI50 in the assay on MOLT-4, in the assay on NCI-H226, in the assay on NCI-H522, in the assay with OVCAR-5, in the assay on SF-268 and in the assay on SK-MEL-28 was > 100 µM (inactive) throughout. For the same molecule, the GI50 in the assay on TK-10 was > 100 µM (inactive).
`Cc1ccc2c(c1)CNc1ccc(C)cc1CN2`: the GI50 with CCRF-CEM was > 100 µM (inactive); in the assay on EKVX, > 100 µM (inactive); in the assay with HCT-15 it was above 100 µM; with HL-60 it was > 100 µM (inactive); with HOP-62 it was > 100 µM (inactive); with LOX IMVI, > 100 µM (inactive). Also, the GI50 with MOLT-4, with NCI-H226, in the assay on NCI-H522, in the assay on OVCAR-3, with OVCAR-5 and in the assay with SF-268 was > 100 µM (inactive) throughout. For the same molecule, in the assay on SF-539, the GI50 is > 100 µM (inactive).
On to `CCOc1ccc(NC(=O)CC#N)cc1`, for which the GI50 in the assay on A498, in the assay with CCRF-CEM, with EKVX, in the assay with HL-60, with HOP-62 and with LOX IMVI was > 100 µM (inactive) in each case. For the same molecule, the GI50 in the assay with MOLT-4, with NCI-H226, with NCI-H522, with OVCAR-3, in the assay on OVCAR-5 and in the assay with SF-268 was > 100 µM (inactive) throughout. For the same molecule, the GI50 with SK-MEL-28 and in the assay with TK-10 was > 100 µM (inactive) throughout.
As for `O=C1C(Cl)C(c2ccccc2)N1n1cnc2ccccc2c1=O` (stereo unspecified), the GI50 was > 100 µM (inactive) in the assay with CCRF-CEM; 44.2 µM (inactive) in the assay with EKVX; above 100 µM in the assay with HCT-15; > 100 µM (inactive) in the assay on HL-60; > 100 µM (inactive) in the assay with HOP-62; > 100 µM (inactive) in the assay with LOX IMVI. Besides, the GI50 was > 100 µM (inactive) with MOLT-4; 28.4 µM (inactive) in the assay on NCI-H226; 55.3 µM (inactive) in the assay with NCI-H522; > 100 µM (inactive) in the assay with OVCAR-3; > 100 µM (inactive) in the assay with OVCAR-5; 85.3 µM (inactive) in the assay with SF-268. Further, the GI50 in the assay on SK-MEL-28 and in the assay with TK-10 was > 100 µM (inactive) throughout.
Consider `CC(C)=CCOc1ccc(-c2coc3cc4c(c(O)c3c2=O)C=CC(C)(C)O4)cc1`, for which the GI50 is 14.9 µM (inactive) in the assay with A498; 43.5 µM (inactive) in the assay on CCRF-CEM; 5.22 µM (inactive) in the assay with EKVX; 21 µM in the assay on HCT-15; > 100 µM (inactive) with HL-60; > 100 µM (inactive) in the assay with HOP-62. Further, the GI50 with LOX IMVI was 1.7 µM (inactive); in the assay with MOLT-4 it was > 100 µM (inactive); with NCI-H226, > 100 µM (inactive); with NCI-H522, 0.129 µM (active); in the assay with OVCAR-3 it was 2.13 µM (inactive); in the assay with OVCAR-5 it was > 100 µM (inactive). The GI50 in the assay on SF-268 was > 100 µM (inactive); in the assay with SK-MEL-28, 91.4 µM (inactive); with TK-10, > 100 µM (inactive).
With `CCOc1ccccc1NC(=O)C(=O)Cc1nc2ccccc2s1`, the GI50 with A498 was > 100 µM (inactive); with CCRF-CEM, > 100 µM (inactive); with EKVX it was > 100 µM (inactive); in the assay on HCT-15 it was above 100 µM; in the assay on HL-60, > 100 µM (inactive); with HOP-62, > 100 µM (inactive). Besides, the GI50 with MOLT-4, with NCI-H226, with NCI-H522, with OVCAR-3, in the assay on SF-268 and in the assay on SF-539 was > 100 µM (inactive) in each case. Moreover, the GI50 with SK-MEL-28 and in the assay on TK-10 was > 100 µM (inactive) in each case.
For the molecule `O=C1/C(=C/c2cc(O)c(O)c(O)c2)Oc2cc(O)cc(OC3OC(CO)C(O)C(O)C3O)c21` (stereo unspecified), the GI50 in the assay on A498 is 23.9 µM (inactive); in the assay with CCRF-CEM it was 17.5 µM (inactive); with EKVX it was 43.6 µM (inactive); in the assay on HCT-15, 22.4 µM; with HL-60 it was 15.6 µM (inactive); in the assay with LOX IMVI, 1.73 µM (inactive). Further, the GI50 with MOLT-4 was 19.1 µM (inactive); with OVCAR-3, 14.9 µM (inactive); in the assay on SF-539, > 100 µM (inactive); with SK-MEL-28, 46.3 µM (inactive); in the assay on TK-10, 30.5 µM (inactive).
For `Cc1cccc(C)c1NC(=O)/C(=N/NC(N)=S)C(C)C(=O)c1ccc(Cl)cc1` (stereo unspecified), the GI50 in the assay with A498 was > 100 µM (inactive); in the assay on CCRF-CEM, > 100 µM (inactive); in the assay with EKVX, > 100 µM (inactive); in the assay on HCT-15, above 100 µM; in the assay on HL-60, 93.8 µM (inactive); in the assay on HOP-62 it was > 100 µM (inactive). Besides, the GI50 in the assay on MOLT-4 was > 100 µM (inactive); with NCI-H226, > 100 µM (inactive); in the assay with NCI-H522, 89.9 µM (inactive); with OVCAR-3, > 100 µM (inactive); in the assay on OVCAR-5, > 100 µM (inactive); in the assay with SF-268 it was > 100 µM (inactive). The GI50 in the assay on SF-539, with SK-MEL-28 and with TK-10 was > 100 µM (inactive) in each case.
Turning to `Cc1nc2c3c(ccc2nc1O)C(=O)c1ccccc1C3=O`, the GI50 with A498 is 20.3 µM (inactive); in the assay with EKVX, 23.1 µM (inactive); in the assay with HCT-15 it was 48 µM; in the assay with HL-60, > 100 µM (inactive); in the assay with HOP-62 it was 40.4 µM (inactive); in the assay on LOX IMVI it was 41.6 µM (inactive). The GI50 was 29.2 µM (inactive) in the assay on NCI-H226; 7.18 µM (inactive) in the assay with NCI-H522; > 100 µM (inactive) in the assay on OVCAR-3; > 100 µM (inactive) in the assay with OVCAR-5; 15.6 µM (inactive) with SF-268; 40.8 µM (inactive) in the assay with SF-539. The GI50 in the assay with SK-MEL-28 and in the assay with TK-10 was > 100 µM (inactive) each time.
Take `CN1C(=O)C(=CN)C(=O)N(C)C1=O`: the GI50 is > 100 µM (inactive) in the assay on CCRF-CEM; > 100 µM (inactive) with EKVX; above 100 µM in the assay with HCT-15; > 100 µM (inactive) in the assay with HL-60; > 100 µM (inactive) with LOX IMVI; > 100 µM (inactive) with MOLT-4. In addition, the GI50 in the assay on NCI-H226, in the assay on NCI-H522, in the assay with OVCAR-3, with OVCAR-5, in the assay on SF-268 and in the assay on SK-MEL-28 was > 100 µM (inactive) throughout. For the same molecule, in the assay with TK-10, the GI50 is > 100 µM (inactive).
`O=[PH](O)c1cc2c3ccccc3ccc2c2ccccc12`: the GI50 in the assay with CCRF-CEM, with EKVX, in the assay with HL-60, in the assay with HOP-62, in the assay with LOX IMVI and in the assay on MOLT-4 was > 100 µM (inactive) throughout. For the same molecule, the GI50 in the assay with NCI-H226 is 13.9 µM (inactive); with NCI-H522, > 100 µM (inactive); with OVCAR-3 it was > 100 µM (inactive); in the assay with SF-268, > 100 µM (inactive); in the assay on SF-539 it was > 100 µM (inactive); in the assay with SK-MEL-28 it was > 100 µM (inactive). Moreover, the GI50 with TK-10 is > 100 µM (inactive).
As for `C=CCc1cc(-c2cc(CC=C)c(O)c(CNCCCl)c2)cc(CNCCCl)c1O`, the GI50 in the assay on A498 is 18.7 µM (inactive); in the assay with CCRF-CEM it was 18.3 µM (inactive); with HCT-15 it was 16.4 µM; in the assay on HL-60, 17.3 µM (inactive); in the assay with HOP-62 it was 18 µM (inactive); with LOX IMVI, 15.3 µM (inactive). For the same molecule, the GI50 is 16.9 µM (inactive) in the assay on MOLT-4; 18.3 µM (inactive) in the assay with NCI-H226; 16.9 µM (inactive) with NCI-H522; 21.4 µM (inactive) with OVCAR-3; 22.6 µM (inactive) in the assay with SF-268; 18.6 µM (inactive) in the assay with SK-MEL-28. In addition, the GI50 in the assay on TK-10 is 19.6 µM (inactive).
On to `COC(=O)C1Cc2c([nH]c3ccccc23)C(C2CCCCC2)N1` (stereo unspecified), for which the GI50 with CCRF-CEM is > 100 µM (inactive); in the assay with EKVX, > 100 µM (inactive); in the assay on HCT-15 it was above 100 µM; in the assay on HL-60, > 100 µM (inactive); with LOX IMVI it was > 100 µM (inactive); in the assay with MOLT-4 it was > 100 µM (inactive). Further, the GI50 in the assay with NCI-H226, with NCI-H522, in the assay on OVCAR-3, in the assay on OVCAR-5, in the assay on SF-268 and in the assay on SF-539 was > 100 µM (inactive) in each case. Besides, the GI50 in the assay with SK-MEL-28 and with TK-10 was > 100 µM (inactive) throughout.

The record behind these values is ChEMBL document CHEMBL1201862, “PubChem BioAssay data set” (2004).
